{"source": "patent US20250275975A1", "about": "“Methods of Treating Neuropathies” (Athira Pharma, Inc., priority 2023, published 2025)", "key": {"STZ DNP rats [1]": {"test_system": "STZ DNP rats", "test": "Thermal hyperalgesia rescue assay (hot plate paw withdrawal latency), Example B1", "format": "in vivo, Sprague Dawley rats", "set-up": "key to Efficacy: rescue of thermal hyperalgesia behavior as measured by paw withdrawal latency: NS indicates treatment did not significantly affect paw withdrawal latency vs disease control.; + indicates p < 0.05 vs disease control.; ++ indicates p < 0.01 vs disease control.; +++ indicates p < 0.001 vs disease control", "details": "for Efficacy: rescue of thermal hyperalgesia behavior as measured by paw withdrawal latency: study day 28 after 14 days of treatment, hot plate 52.5° C., p vs disease control; for rescue of thermal allodynia behavior as measured by paw withdrawal latency: STZ DNP rats", "experimental": "(§1) A series of studies were performed to determine the ability of HGF/MET positive modulator compounds to reduce the mechanical allodynia pain behaviors in hyperglycemic rats. A single dose of STZ (55 mg/kg via intravenous (IV)) was administered to induce a Type I diabetic hyperglycemia in male Sprague Dawley rats. Hyperglycemia was confirmed 4 days after STZ administration, with blood glucose levels above 200 mg/dL considered successful model induction. 14 days after disease induction, test compound treatment was initiated and continued as daily compound administration over the remaining course of the study. Route and dose for each compound were determined by pharmacokinetic and distribution modelling. Control groups included animals with no diabetic induction (Sham control), animals with diabetes but treated only with formulation vehicle (DNP (diabetic peripheral neuropathy) control), and disease animals treated with pregabalin (30 mg/kg via PO), which is known to reduce neuropathic pain behaviors.\n(§2) Changes to neuropathic pain behaviors were assessed after 14 days of compound treatment on study day 28. Mechanical allodynia was tested by placing each animal on an elevated wire grid and stimulating the plantar surface of the right rear paw with a series of filaments corresponding to increasing orders of force, reaching a maximum force of 60 grams (Aesthesio manual Von Frey filaments). The force of the filament that causes paw withdrawal was considered the paw withdrawal threshold in grams. Pain sensitivity in response to thermal hyperalgesia was determined by using hot plate method and represented as paw withdrawal latency (PWL). Rats were placed on the hot plate (52.5° C.), and the time taken to show the nocifensive behavior (either licking or jumping) of any of their paws was recorded. Statistical comparison of treatment groups to DNP control groups was performed by one-way ANOVA followed by Dunnett's multiple comparisons test."}, "STZ DNP rats [2]": {"test_system": "STZ DNP rats", "test": "Mechanical allodynia rescue assay (Von Frey paw withdrawal threshold), Example B1", "format": "in vivo, Sprague Dawley rats", "set-up": "key to Efficacy: rescue of mechanical allodynia behavior as measured by paw withdrawal threshold: NS indicates treatment did not significantly affect paw withdrawal threshold vs disease control.; + indicates p < 0.05 vs disease control.; ++ indicates p < 0.01 vs disease control.; +++ indicates p < 0.001 vs disease control", "details": "for Efficacy: rescue of mechanical allodynia behavior as measured by paw withdrawal threshold: study day 28 after 14 days of treatment, p vs disease control; for rescue of the mechanical allodynia behavior as measured by paw withdrawal threshold: STZ DNP rats", "source_text": "Hyperglycemic rats consistently develop neuropathic pain-associated behaviors including mechanical allodynia. Allodynia refers to a type of neuropathic pain characterized by increased sensitivity to stimuli that are not normally painful. Mechanical allodynia is quantified in rats by determination of the force required to induce a withdrawal of the paw and is negatively associated with allodynia such that, the lower the force required to induce paw withdrawal, the greater the pain behavior.\nas §1, §2"}, "[3]": {"test_system": "neuron-Schwann cell co-cultures injured with cisplatin", "test": "Sensory neurite extension and myelination in cisplatin-injured primary dorsal root ganglia cultures", "format": "cell-based, rat", "set-up": "key to Significant promotion of Neurite Network Extension of Sensory Neurons / Significant promotion of Myelination of Sensory neurons by Schwann Cells: “NS” indicates the treatment did not have a significant effect; “+” indicates the treatment had a significant effect", "details": "for Significant promotion of Myelination of Sensory neurons by Schwann Cells / Significant promotion of Neurite Network Extension of Sensory Neurons: +Cisplatin injury (10 μg/ml, 24 hours), vs Cisplatin-treated group", "experimental": "(§3) To assess the effects of test compound treatment on these structures central to neuropathic pathology, peripheral sensory neurons were modeled using dissociated primary cultures of neurons and Schwann cells collected from fetal rats. Fetal rats were collected from pregnant females after 15 days of gestation, and the dorsal root ganglion was dissociated via trypsin digestion and mechanical disruption. The resulting cells were plated and allowed to grow for 7 days. On day 7 in culture, ascorbic acid at a concentration of 50 μM was added to the culture to promote myelination of sensory neurons by Schwann cells.\nTo model the effects of neuropathic injury in sensory neurons and associated Schwann cells, cultures were injured with the chemotherapy drug cisplatin. These cultures were prepared identically to those described above. In this system, Compound 5a, HGF, and β-estradiol treatments began on culture day 19. Also on culture day 19, cisplatin (10 μg/ml) was added to the cultures for 24 hours. On culture day 20, cisplatin was removed from the media while test compound treatments were replaced for 24 hours. On day 21 in culture, cells were fixed and processed for immunodetection as described above.\n(§4) 30 fluorescent images were captured for each treatment group and images were quantified by automated image analysis. Neurite network extension was quantified as the total length of MAP2-positive neurites per cell measured in μm. Myelination by Schwann cells was quantified by the area of overlap between MAP2-positive neurites and MAG-positive myelin wrapping measured in μm^2. Statistical analysis was performed as a one-way ANOVA with Fisher's LSD post-test against either vehicle- or Cisplatin-treated groups respectively."}, "[4]": {"test_system": "neuron-Schwann cell co-cultures", "test": "Sensory neurite extension and myelination in healthy primary dorsal root ganglia cultures", "format": "cell-based, rat", "set-up": "key to Significant promotion of Neurite Network Extension of Sensory Neurons / Significant promotion of Myelination of Sensory neurons by Schwann Cells: “NS” indicates the treatment did not have a significant effect; “+” indicates the treatment had a significant effect", "details": "for Significant promotion of Myelination of Sensory neurons by Schwann Cells / Significant promotion of Neurite Network Extension of Sensory Neurons: Healthy cultures, vs vehicle", "experimental": "as §3\nTo model the effects of Compound 5a in the normal peripheral nervous system, neuron-Schwann cell co-cultures were treated with Compound 5a in combination with low doses of recombinant hepatocyte growth factor (HGF). On day 8 in culture, experimental treatments were added to culture media. These treatments included HGF with or without Compound 5a. Some cultures were treated with the steroid hormone B-estradiol to serve as a positive control. Treatments were applied every other day, and on day 21 in culture the cultures were fixed with ethanol and processed for immunodetection of both microtubule-associate protein 2 (MAP2) to reveal neurons and their neurites as well as myelin-associated glycoprotein (MAG) to reveal Schwann cells and the extent of their myelination of cultured neurites. Cells were counterstained with Hoechst DNA dye to identify individual cells.\nas §4"}, "[5]": {"details": "injured cultures, HGF alone at either 0.05 or 5 ng/ml"}, "[6]": {"details": "healthy cultures, HGF alone at either 0.05 or 5 ng/ml"}, "[7]": {"details": "injured cultures, positive control β-estradiol"}, "[8]": {"details": "healthy cultures, positive control β-estradiol"}}, "data": [{"molecule": "CCC(C)CN1CC2N(C(=O)c3ccc(OC(F)F)cc3)CCC(=O)N2[C@@H](C)C1=O", "note": "(stereo partly shown) [Compound 2a]", "values": [{"measurement": "Efficacy: rescue of thermal hyperalgesia behavior as measured by paw withdrawal latency", "setting": "STZ DNP rats [1]; 0.00625 mg/kg PO daily", "value": "+ (+ indicates p < 0.05 vs disease control.)"}, {"measurement": "Efficacy: rescue of thermal hyperalgesia behavior as measured by paw withdrawal latency", "setting": "STZ DNP rats [1]; 0.025 mg/kg PO daily", "value": "NS"}, {"measurement": "Efficacy: rescue of thermal hyperalgesia behavior as measured by paw withdrawal latency", "setting": "STZ DNP rats [1]; 0.1 mg/kg PO daily", "value": "++ (++ indicates p < 0.01 vs disease control.)"}, {"measurement": "Efficacy: rescue of thermal hyperalgesia behavior as measured by paw withdrawal latency", "setting": "STZ DNP rats [1]; 1 mg/kg PO daily", "value": "NS"}, {"measurement": "rescue of thermal allodynia behavior as measured by paw withdrawal latency", "setting": "STZ DNP rats [1]", "value": "significant rescue"}, {"measurement": "Efficacy: rescue of mechanical allodynia behavior as measured by paw withdrawal threshold", "setting": "STZ DNP rats [2]; 0.00625 mg/kg PO daily", "value": "+ (+ indicates p < 0.05 vs disease control.)"}, {"measurement": "Efficacy: rescue of mechanical allodynia behavior as measured by paw withdrawal threshold", "setting": "STZ DNP rats [2]; 0.025 mg/kg PO daily", "value": "++ (++ indicates p < 0.01 vs disease control.)"}, {"measurement": "Efficacy: rescue of mechanical allodynia behavior as measured by paw withdrawal threshold", "setting": "STZ DNP rats [2]; 0.1 mg/kg PO daily", "value": "+++ (+++ indicates p < 0.001 vs disease control.)"}, {"measurement": "Efficacy: rescue of mechanical allodynia behavior as measured by paw withdrawal threshold", "setting": "STZ DNP rats [2]; 1 mg/kg PO daily", "value": "+++ (+++ indicates p < 0.001 vs disease control.)"}, {"measurement": "rescue of the mechanical allodynia behavior as measured by paw withdrawal threshold", "setting": "STZ DNP rats [2]", "value": "significant rescue"}]}, {"molecule": "HGF: recombinant hepatocyte growth factor (HGF), added at low doses with or without Compound 5a", "values": [{"measurement": "Significant promotion of Myelination of Sensory neurons by Schwann Cells", "setting": "[3]; HGF 0.05 ng/ml alone", "value": "NS"}, {"measurement": "Significant promotion of Neurite Network Extension of Sensory Neurons", "setting": "[3]; HGF 0.05 ng/ml alone", "value": "NS"}, {"measurement": "Significant promotion of Myelination of Sensory neurons by Schwann Cells", "setting": "[3]; HGF 5 ng/ml alone", "value": "NS"}, {"measurement": "Significant promotion of Neurite Network Extension of Sensory Neurons", "setting": "[3]; HGF 5 ng/ml alone", "value": "NS"}, {"measurement": "myelination", "setting": "[3]; [5]", "value": "did not significantly promote"}, {"measurement": "neurite network extension", "setting": "[3]; [5]", "value": "did not significantly promote"}, {"measurement": "Significant promotion of Myelination of Sensory neurons by Schwann Cells", "setting": "[4]; HGF 0.05 ng/ml alone", "value": "NS"}, {"measurement": "Significant promotion of Neurite Network Extension of Sensory Neurons", "setting": "[4]; HGF 0.05 ng/ml alone", "value": "NS"}, {"measurement": "Significant promotion of Myelination of Sensory neurons by Schwann Cells", "setting": "[4]; HGF 5 ng/ml alone", "value": "NS"}, {"measurement": "Significant promotion of Neurite Network Extension of Sensory Neurons", "setting": "[4]; HGF 5 ng/ml alone", "value": "NS"}, {"measurement": "myelination", "setting": "[4]; [6]", "value": "did not significantly promote"}, {"measurement": "neurite network extension", "setting": "[4]; [6]", "value": "did not significantly promote"}]}, {"molecule": "C[C@]12CC[C@@H]3c4ccc(O)cc4CC[C@H]3[C@@H]1CC[C@@H]2O", "note": "[β-estradiol, reference compound]", "values": [{"measurement": "Significant promotion of Myelination of Sensory neurons by Schwann Cells", "setting": "[3]; β-estradiol 150 nM", "value": "+"}, {"measurement": "Significant promotion of Neurite Network Extension of Sensory Neurons", "setting": "[3]; β-estradiol 150 nM", "value": "+"}, {"measurement": "myelination of sensory neurons by Schwann cells", "setting": "[3]; [7]", "value": "significantly promoting"}, {"measurement": "neurite network extension", "setting": "[3]; [7]", "value": "significantly promoting"}, {"measurement": "Significant promotion of Myelination of Sensory neurons by Schwann Cells", "setting": "[4]; β-estradiol 150 nM", "value": "+"}, {"measurement": "Significant promotion of Neurite Network Extension of Sensory Neurons", "setting": "[4]; β-estradiol 150 nM", "value": "+"}, {"measurement": "myelination of sensory neurons by Schwann cells", "setting": "[4]; [8]", "value": "significantly promoting"}, {"measurement": "neurite network extension", "setting": "[4]; [8]", "value": "significantly promoting"}]}, {"molecule": "CCC(C)CN1CC2N(Cc3ccc(OC(F)F)cc3)CCC(=O)N2[C@@H](C)C1=O", "note": "(stereo partly shown) [Compound 6a]", "values": [{"measurement": "Efficacy: rescue of thermal hyperalgesia behavior as measured by paw withdrawal latency", "setting": "STZ DNP rats [1]; 0.156 mg/kg PO daily", "value": "NS"}, {"measurement": "Efficacy: rescue of thermal hyperalgesia behavior as measured by paw withdrawal latency", "setting": "STZ DNP rats [1]; 0.625 mg/kg PO daily", "value": "NS"}, {"measurement": "Efficacy: rescue of thermal hyperalgesia behavior as measured by paw withdrawal latency", "setting": "STZ DNP rats [1]; 2.5 mg/kg PO daily", "value": "++ (++ indicates p < 0.01 vs disease control.)"}, {"measurement": "Efficacy: rescue of thermal hyperalgesia behavior as measured by paw withdrawal latency", "setting": "STZ DNP rats [1]; 10 mg/kg PO daily", "value": "+++ (+++ indicates p < 0.001 vs disease control.)"}, {"measurement": "rescue of thermal allodynia behavior as measured by paw withdrawal latency", "setting": "STZ DNP rats [1]", "value": "significant rescue"}, {"measurement": "Efficacy: rescue of mechanical allodynia behavior as measured by paw withdrawal threshold", "setting": "STZ DNP rats [2]; 0.156 mg/kg PO daily", "value": "NS"}, {"measurement": "Efficacy: rescue of mechanical allodynia behavior as measured by paw withdrawal threshold", "setting": "STZ DNP rats [2]; 0.625 mg/kg PO daily", "value": "+ (+ indicates p < 0.05 vs disease control.)"}, {"measurement": "Efficacy: rescue of mechanical allodynia behavior as measured by paw withdrawal threshold", "setting": "STZ DNP rats [2]; 2.5 mg/kg PO daily", "value": "+++ (+++ indicates p < 0.001 vs disease control.)"}, {"measurement": "Efficacy: rescue of mechanical allodynia behavior as measured by paw withdrawal threshold", "setting": "STZ DNP rats [2]; 10 mg/kg PO daily", "value": "+++ (+++ indicates p < 0.001 vs disease control.)"}, {"measurement": "rescue of the mechanical allodynia behavior as measured by paw withdrawal threshold", "setting": "STZ DNP rats [2]", "value": "significant rescue"}]}]}
